Experiments:
[1] = test system: HeLa cells; assay: DNA (pCl-Luc luciferase plasmid) transfection with peptide dendrimer and lipid; format: cell-based, human; settings: 0.25 μg pCl-Luc
Experimental: Cell Lines, transfection reagents and plasmids. HeLa cells were maintained in RPMI medium with 10% (v/v) FCS and 1% (v/v) P/S in a humidified atmosphere in 5% CO2 and 37° C. The plasmid pCl-Luc was derived from plasmid pCl (Promega, Southampton, UK) with the luciferase gene inserted. Branched PEI (25 kDa) was purchased from Sigma-Aldrich. Lipofectamine 2000 (L2000) and Lipofectin (DOTMA:DOPE, 1:1 (w/w)) were obtained from Invitrogen. PEI, L2000 and lipofectin were used as positive control transfection agents in accordance with the manufacturer's instructions.
Transfection procedure. 24 hours before transfection, HeLa cells were seeded (10,000 cells in 100 μL/well) in 96 well plates in order to reach 70% confluence. Plasmid transfection complexes were formed by mixing the dendrimers (100 μL, from 60 μg to 105 μg, dependent on N/P ratios) with lipofectin (4 μg; 100 μL). These mixtures were incubated with a pCl-Luc (4 μg; 100 μL) at different N/P ratios in OptiMEM for 30 min at 25° C. Transfection control complexes (PEI, Lipofectin or L2000) (total 100 μL in OptiMEM) were mixed with pCl-Luc (4 μg; 100 μL) at the respective manufacturers' recommended concentrations. For transfection in serum-free medium, before overlaying the DNA complexes on the cells, OptiMEM was added to dilute the complexes, so that each complex contained 0.25 μg DNA in a total volume of 100 μL in one well of a 96 well plate. For transfection in serum medium, before overlaying the DNA complexes on the cells, full growth medium was added to dilute the complexes, so that each complex contained 0.25 μg DNA in a total volume of 100 μL in one well of a 96 well plate. After removing complete media from the cells, the complexes were added to the plates. The plates were incubated for 4 hours at 37° C. Then, the transfection solutions were replaced by full growth media for 24 hours before luciferase activity was assayed.
Transgene expression assay. The cells were washed twice with PBS and incubated with reporter lysis buffer (20 μL, Promega) for 20 min at 4° C., then overnight at −80° C. After the cells were defrosted at room temperature, luciferase assay buffer (100 μL, Promega; prepared according to the manufacturer's protocol) was added to each well. The luminescent product was measured by Relative Light Units (RLU) in a FLUOstar Optima luminometer (BMG Labtech).
Protein content determination. The protein content of each cell lysate was determined by mixing the lysate (20 μL) with Bio-Rad Protein Assay Reagent (180 μL, Bio-Rad, Hemel Hempstead, UK). After incubation of 10 min, the absorbance at 590 nm was measured and converted to protein concentration using a BSA standard curve. RLU per mg of protein represented luciferase activity. The ratio of these two values is the activity per protein unit (in RLU/mg).

[2] = test system: Neuro2A cells; assay: as above; format: cell-based, mouse; settings: 0.25 μg pCl-Luc
[3] = test system: HeLa cells; assay: mRNA (eGFP) transfection with peptide dendrimers and DOTMA/DOPE in full growth medium; format: cell-based, human; settings: for mRNA transfection efficiency (eGFP), in words: HeLa, full growth medium, DOTMA/DOPE w/w 10:1 to mRNA, relative to G1,2-RL, 3-LR
Experimental: FIG. 28. mRNA transfection of the peptide dendrimers with lipid system in vitro. […] The mRNA used expressed an eGFP reporter gene. Following a 24 hour transfection, the cells were harvested to assay the eGFP expression. The eGFP expression was normalised with the total amount of protein of each transfection. The gene expression level was calculated by normalising the transfection value of the G1,2-RL, 3-LR, DOTMA/DOPE & mRNA treated cells. 1st, 2nd and 3rd generation dendrimers with varying cores and 1st, 2nd, and 3rd generation peptide motifs can transfect cells with mRNA effectively under the tested conditions.
FIG. 29. mRNA transfection of the peptide dendrimers with lipid system in vitro. HeLa cells were transfected with mRNA alone or mRNA with peptide dendrimers and DOTMA/DOPE (w/w=10:1 to mRNA). The N:P ratio of G1,2-RL,3-LR was at 0.16:1 while the N:P ratios of all other dendrimers at 8:1. The mRNA used expressed an eGFP reporter gene. Following a 24 hour transfection, the cells were harvested to assay the eGFP expression. The eGFP expression was normalised with the total amount of protein of each transfection. The gene expression level was calculated by normalising the transfection value of the G1,2-RL, 3-LR, DOTMA/DOPE & mRNA treated cells. 1st, 2nd and 3rd generation dendrimers with varying cores and 1st, 2nd, and 3rd generation peptide motifs can transfect cells with mRNA effectively under the tested conditions.
The effect on the number of generations of dendrimers on mRNA delivery was studied by transfecting HeLa cells in full growth medium conditions.

[4] = test system: mice tissue; assay: In vivo luciferase mRNA expression assays; settings: intravenous, 6 hours; for luciferase expression in tissues, mRNA delivery: NP 0.15:1, DOTMA/DOPE w/w=10:1 to mRNA
Experimental: Peptide dendrimers were diluted to a respective concentration and mixed with mRNA for a desired NP ratio such as NP=0.15:1 or 8:1. The solution was incubated in room temperature for 10 mins. Lipid such as DOTMA/DOPE was diluted to a respective concentration and mixed with the dendrimer-mRNA complexes for a desired NP ratio such as NP-4.7:1. The solution was incubated in room temperature for 20 mins. When required, the solution would be further diluted before injection.
All animal procedures conducted in our studies complied with UK laws and were inclusive of ethics approval. Female CD-1 mice (n=39) aged 6-8 weeks left to habituate for 1-week upon their arrival. All mice were weighed, and the formulations were delivered intravenously (100 μl) via the tail vein using 30G insulin syringes (BD biosciences).
All mice were imaged 6 hours post injection. BLI was performed using an IVIS Lumina II (Perkin Elmer) Imaging system. Mice were administered D-luciferin (30 mg/mL, XenoLight, Perkin Elmer) at a dose of 150 mg/kg. Mice were anaesthetised 6 mins after receiving D-luciferin in a chamber with 5% isoflurane and then placed on a heated imaging platform while being maintained on 2.5% isoflurane. Mice were imaged 10 min post administration of D-luciferin with an exposure time set to ensure the signal acquired was within an effective detection range (open filter, binning 8, f-stop 1). Bioluminescence signal was quantified by measuring photon flux (photons/s) in the defined region of interest (ROI) using the Living Image software (Perkin Elmer). Following in vivo whole-body imaging, the mice were euthanised, cardiac blood taken, and the tissues extracted for ex vivo imaging. Here each tissue was placed into individual wells of a 24-well imaging plate (black sided, Eppendorf) containing 0.3 mg/mL D-luciferin in PBS). The imaging plate was placed in the centre of imaging platform (Lumina II system) and signal was measured using the acquisition settings detailed above. Finally, the tissues were placed in storage vials and flash frozen in liquid nitrogen.
Mice were injected with a composition comprising DOTMA/DOPE, mRNA encoding luciferase and either G1,2,3-RL, (FIG. 10, top panel; the “G1,2,3-RL, lipid and mRNA formulation”) or G1,2-RL,3-LR (FIG. 10, bottom panel: the “G1,2,3-RL, lipid and mRNA formulation”). Each formulation was prepared and injected at an NP ratio of 8:1 and 0.15:1. Mice were prepared for detection of luciferase expression post injection.

[5] = Hydrodynamic size, polydispersity index and zeta potential of dendrimer, lipid and mRNA complexes; format: physicochemical; settings: DOTMA/DOPE w/w 10:1 to mRNA; for Hydrodynamic size: dendrimer, lipid and mRNA complexes
Experimental: The hydrodynamic size, polydispersity index and Zeta potential was determined for a set of the dendrimers disclosed in Tables 1 and 2.

[6] = test system: immune cells; assay: Immune cell targeting: uptake of labelled mRNA after intravenous injection (flow cytometry); format: in vivo, mice
Experimental: Fifteen 5-7-week-old female CD-1 mice (Charles River UK) were dosed with 1 mg/kg of either mRNA labelled with Alexa Fluor488 only or mRNA labelled with Alexa Fluor488 with NTX1 and DOTMA/DOPE or mRNA labelled with Alexa Fluor488 with G1,2-RL, 3-LR and DOTMA/DOPE or mRNA labelled with Alexa Fluor488 with G1,2-RL, 3-LR and DOTMA/DOPE, respectively, via intravenous injection using a dose volume of 5 ml/kg. Group 1 received vehicle and Group 5 received mRNA alone as controls. Mice in al groups were culled 2 hours post IV administration. At the time of euthanasia, whole blood, spleen, inguinal lymph nodes and femurs were collected from all mice. White Blood Cells (WBC) were obtained from EDTA treated whole blood, spleen, inguinal lymph nodes and bone marrow for flow cytometry analysis. In short, bone marrow (BM) was flushed from femurs, and spleens and lymph nodes were processed to single cell suspensions by passing them through a 70 μm filter. Red blood cells in blood, BM and spleen were lysed before isolated WBCs from all tissues were stained with different antibody panels to identify specific sub-populations of immune cells. The staining was performed in a 96-well plate format before samples were analysed using an ACEA Novocyte 3005 flow cytometer.

Polydispersity Index (PDI) ([5]; N:P 0.16:1)	Zeta Potential ([5]; N:P 0.16:1) [mV]	Polydispersity Index (PDI) ([5]; N:P 8:1)	Zeta Potential ([5]; N:P 8:1) [mV]	Hydrodynamic size ([5]; N:P 0.16:1) [nm]	Hydrodynamic size ([5]; N:P 8:1) [nm]	Substance	DNA transfection efficiency (luciferase, normalised to D/D), in words [1]	DNA transfection efficiency (luciferase, normalised to D/D), in words [2]	mRNA transfection efficiency (eGFP), in words [3]	further results
–	–	–	–	–	–	(K)8(KK)4(KK)2KGSC-NH2 [G1,2,3-K]	not as effective as G1,2,3-KL	not as effective as G1,2,3-KL	–	–
–	–	–	–	–	–	(KL)4(KKL)2KGSC-NH2 [G1,2-KL]	higher efficiency than in Neuro2A cells	–	–	–
–	–	–	–	–	–	(KL)8(KKL)4(KKL)2KGSA-NH2 [Ala-G1,2,3-KL]	did not affect the transfection results	did not affect the transfection results	–	–
–	–	–	–	–	–	(KL)8(KKL)4(KKL)2KKLC-NH2 [G0,1,2,3-KL]	did not affect the transfection results	did not affect the transfection results	–	–
–	–	–	–	–	–	(LK)8(KLK)4(KLK)2KGSC-NH2 [G1,2,3-LK]	did not have a significant difference	did not have a significant difference	–	–
0.155	41	0.109	46	117	206	(LR)4(KRL)2KRHC-NH2 [RHCG1-RL, 2-LR]	–	–	can transfect cells effectively	targeting mRNA delivery to the spleen and lung compared to G1,2-RL, 3-LR ([4]; N:P 0.15:1 or 8:1): higher efficiency than the third generation dendrimer G1,2-RL, 3-LR
0.123	33	0.566	45	129	366	(R)2KRHC-NH2 [RHCG1-R]	–	–	can transfect cells effectively	–
0.114	37	0.252	49	123	172	(R)4(KR)2KRHC-NH2 [RHCG1,2-R]	–	–	can transfect cells effectively	–
–	–	–	–	–	–	(RL)4(KRL)2KGSC-NH2 [G1,2-RL]	higher transfection efficiency	higher transfection efficiency	–	–
0.124	41	0.087	47	135	213	(RR)4(KLL)2KGSC-NH2 [G1-LL, 2-RR]	–	–	can be used to deliver mRNA	mRNA transfection efficiency as share of the improved formulation (DOTMA/DOPE w/w=10:1, N:P=0.16:1) ([3]; DOTMA/DOPE w/w=2:1 to mRNA and N:P=20:1): 10%
–	–	–	–	–	–	(kl)8(kkl)4(kkl)2kgsc-NH2 [D-G1,2,3KL]	did not have any significant impact on transfection	did not have any significant impact on transfection	–	–

Substance	Polydispersity Index (PDI) ([5]; N:P 0.16:1)	Zeta Potential ([5]; N:P 0.16:1) [mV]	Polydispersity Index (PDI) ([5]; N:P 8:1)	Zeta Potential ([5]; N:P 8:1) [mV]	Hydrodynamic size ([5]; N:P 0.16:1) [nm]	Hydrodynamic size ([5]; N:P 8:1) [nm]	DNA transfection efficiency (luciferase, normalised to D/D), in words [1]	DNA transfection efficiency (luciferase, normalised to D/D), in words [2]	mRNA transfection efficiency (eGFP), in words [3]	further results
(LR)8(KRL)4(KRL)2KGSCGAASSLNIAXRXRRBRRXRRBRXB-NH2 [NTX1]	0.13	37	–	–	128	–	–	–	more effectively than G1,2-RL, 3-RL	luciferase expression in tissues, mRNA delivery [4]: improves efficiency of mRNA delivery to lung, spleen, and lymph nodes; luciferase expression in tissues, mRNA delivery ([4]; listed as NXT1): more effective than G1,2,3-RL and G1,2-RL,3-LR; delivery of mRNA to immune cells ([6]; blood, 2 hours post-injection): Delivery of mRNA to a wide range of immune cells present in the blood is possible; uptake of mRNA in immune cells ([6]; bone marrow, 2 hrs post-injection): mediated uptake of mRNA in immune cells present in the bone marrow

From patent US20240108753A1, “NUCLEIC ACID DELIVERY” (NUNTIUS THERAPEUTICS LIMITED, priority 2021, published 2024)
